CO/N=C(\C(=O)Sc1nc2ccccc2s1)c1csc(N)n1
Details | solubility (mole fraction)
in 1,2-dichloroethane, 277.83 K | 0.000358
in 1,2-dichloroethane, 282.77 K | 0.000458
in 1,2-dichloroethane, 287.63 K | 0.000619
in 1,2-dichloroethane, 292.84 K | 0.000876
in 1,2-dichloroethane, 297.85 K | 0.00118
in 1,2-dichloroethane, 302.64 K | 0.00154
in THF, 278.4 K | 0.0243
in THF, 283.75 K | 0.0259
in THF, 288.8 K | 0.028
in THF, 293.25 K | 0.0311
in THF, 298.06 K | 0.0352
in THF, 302.95 K | 0.0397
in acetone, 278.32 K | 0.00245
in acetone, 283.31 K | 0.00286
in acetone, 288.15 K | 0.00334
in acetone, 293.2 K | 0.0039
in acetone, 298.54 K | 0.00472
in acetone, 303.28 K | 0.0057
in acetonitrile, 279.45 K | 0.000216
in acetonitrile, 283.46 K | 0.000262
in acetonitrile, 288.45 K | 0.000342
in acetonitrile, 292.98 K | 0.000451
in acetonitrile, 297.47 K | 0.000581
in acetonitrile, 302.45 K | 0.000761
in dichloromethane, 278.6 K | 0.000719
in dichloromethane, 283.64 K | 0.000967
in dichloromethane, 288.46 K | 0.00128
in dichloromethane, 294.03 K | 0.00171
in dichloromethane, 298.71 K | 0.00217
in dichloromethane, 303.44 K | 0.00267

Reference: BigSolDB 2.1
